Results: patent publication US20030186943A1, “Substituted gamma-phenyl-delta-lactams and uses related thereto” (Inflazyme Pharmaceuticals Ltd., priority 1998, published 2003)

Assays:
[1] = tested on: cAMP response element luciferase activity in human U937 monocytic cells; test: Potentiation of forskolin-induced CRE-luciferase activity in U937 cells; format: cell-based; conditions: U-937, U937 cells co-incubated with 10 μM forskolin, 4 hours, X marks this range, read-out: EC50 range (μM) 1-25
Experimental: Compounds of the present invention were thereby shown to provide potentiated luciferase expression in U937 cells treated with the adenylyl cyclase activator forskolin.
Human pro-monocytic U937 cells were maintained in RPMI medium containing 10% FCS and 2 mM […]. U937 cells were transiently transfected as described in Biotechniques Vol. 17(6):1058, 1994. Briefly, cells were grown in medium containing serum to a density of 5×10^6 cells/mL and then resuspended in media containing serum at a density of approximately 1×10^7 cells/mL. 400 μL of cells were transferred into the electroporation cuvette containing 10 μg of the reporter vector (PCRE-luc) in a volume of 40 μL H2O. Reporter vector DNA was prepared from DH5α E. coli using the DNA […] free kit (Qiagen) as per manufacturers instructions. U937 cells were clectroporated at room temperature using a BIORAD electroporator. Capacitance was set to 1050 μF and voltage was 280V. The time constant was noted after each electroporation. Cells were then diluted in 4 mL of media and serum and 200 μL of cells were plated per well. Cells were allowed to recover for 16-18 hours. Cells were then treated with a test compound or vehicle in the presence or absence of 10 μM forskolin for 4 hours at 37° C.
The luciferase assay was performed as per manufacturers instructions (Tropix). Briefly, cells were centrifuged for 4 minutes at 1200 rpm and media supernatant was removed. Cell pellets were lysed in 15 μL Lysis buffer (Tropix). Luciferase assay was performed using 10 μL of cell lysate with 10 μL of buffer A and 25 μL buffer B. Luciferase activity was obtained using a luminometer with a 5-second delay followed by a read time of 10 seconds.

[2] = tested on: primary human neutrophils; test: Generation of reactive oxygen species by fMLP-activated neutrophils (luminol-enhanced chemiluminescence); format: cell-based; conditions: Neutrophil, read-out: IC50 RANGE (μM) <1, ROS production, X marks this range
Source text: Neutrophil activation can be measured by quantitation of ROS generated in vitro. Measurement of ROS allows specific quantitation of a pro-inflammatory species and is also a general measure of neutrophil activation. The most sensitive method for measuring the production of ROS by neutrophils is luminol-enhanced chemiluminescence. […] The assay system used to evaluate the ability of compounds to inhibit ROS generation in neutrophils is indicative of anti-inflammatory activity that may be efficacious in disease states including but not limited to rheumatoid arthritis and inflammatory bowel disease.
Freshly isolated primary human neutrophils (5×10^6 cells/mL) were incubated with the required concentrations of compound or vehicle for 30 minutes at 37° C. in HBSS buffer (pH 7.4) containing Ca^2+. 100 nM wortmannin was used as a positive control. Aliquots of each sample were transferred to a microtitre plate to which luminol (1 μM); obtained from Sigma; Catalogue No. A8511 is added. Activation of the neutrophils was immediately initiated by addition of (1 μM) fMLP; obtained from Sigma, Catalogue No. F3506. Light output from each well was recorded for 30 minutes in a microplate luminometer. Total light output (integral of the time-course) was determined for each well. Inhibitory activities of test drugs against neutrophil ROS generation is expressed as percentage activity relative to a no drug control (100% activation or generation of ROS) containing 0.25% DMSO. Concentration of test compound required to inhibit the generation of ROS to 50% of control values (IC50's) were determined from concentration-response curves by non-linear regression analysis.

[3] = tested on: primary human neutrophils; test: fMLP-induced human neutrophil chemotaxis; format: cell-based; conditions: fMLP-induced chemotaxis, X marks this range, read-out: IC50 RANGE (μM) 10-100
Experimental: Chemotaxis buffer containing the chemoattractant fMLP (10 μM) was added to each well of a chemotaxis plate and a filter was inserted ensuring contact between the filter and the chemotaxis buffer in the well. A submaximal concentration of chemoattractant was used which had been determined in previous experiments. […] Freshly isolated neutrophils (1×10^6) were incubated with vehicle (0.125% DMSO)±test compound for 1 hr at 37° C. Treatment and control cell suspensions were then gently resuspended and 20 μL of cells was added to the top side of the filter on each well. The plate was incubated for 1.5 hours at 37° C. under 5% CO2. Cells were then removed from the top side of the filter by aspiration and the entire plate was centrifuged. The filter was removed and known concentrations of cells were added to unused wells to prepare a standard curve. XTT (Sigma; Catalogue No. X 4251)/PMS (Sigma; Catalogue No. P 7626) solution prepared in buffer was added to each well and the cells were further incubated 1-2 hours and measured for absorbance at 450 nm. Absorbance values were converted to cell numbers using the standard curve. IC50 values are averages from at least three separate experiments with triplicate determinations.

[4] = tested on: Resiniferitoxin-induced mouse ear edema; test: Resiniferitoxin-induced mouse ear edema; format: in vivo; conditions: Mus musculus; topical administration, 50 μg/ear, RTX 0.1 μg/ear, CD1 mice
Source text: One of the primary characteristics of inflammation is an increase in vascular dilation and permeability leading to the extravasation of, and collection of fluids in, the interstitium, resulting in redness and swelling. Rheumatoid arthritis in particular is characterized by pronounced edema of affected joints resulting in significant pain and stiffness. The mouse ear inflammation model is a standard in vivo assay for inflammation that is based on an increase in ear weight which is attributable to edema induced by inflammatory mediators. RTX (resiniferitoxin; Sigma; Catalogue No. R 8756)) is a diterpene isolated from the plant Euphorbia poisonii and is an ultrapotent analog of capsaicin. RTX acts by selectively stimulating nociceptive and thermal-sensitive nerve ending in tissue, eliciting neurogenic edema. Compounds of the present invention, whether administered topically, intraperitoneally or orally, inhibited development of edema induced by topical application of RTX.
Mice (CD1, Charles River Laboratories) were separated into groups (n—5−8) and tagged. Control mice had RTX (0.1 μg/ear) applied topically to the inner and outer sides of the left ear and vehicle applied to the right ear as a control. For topical administration, experimental/treatment mice received RTX+test compound solution (50 μg/ear) on the left ear and acetone on the right ear. For intraperitoneal (i.p.) administration, 100 mg/kg test compound dissolved in 100 μL PEG 200:saline (1:1) was injected followed by a 30 minute waiting period then the standard 30 minute RTX edema induction. For oral (p.o.) administration, 10 mg/kg test compound in 100 μL PEG-200 was given to animals, then edema induced using 0.1 μg/ear RTX after a 1.5 hour waiting period. After edema induction, mice were sacrificed, and a standard disc of ear tissue was removed. Each disk of tissue was immediately weighed to the nearest 1/10th of a mg. Data were analyzed by taking the difference of each left ear from the right ear, calculating the mean+/−SEM. Statistical significance was tested by 2-sample t-test on the left/right ear weight differences of the control group vs. the experimental group.

[5] = target: T1, cAMP phosphodiesterase 3 from human platelets (Homo sapiens, UniProt Q14432); test: Inhibition of cAMP phosphodiesterase 3 from human platelets; format: biochemical; conditions: PDE3, platelet cell extract; X marks this range; read-out: IC50 range (μM) 10-100
T1 construct: from tissue; host or cells: human platelets, cytoplasmic extract
Source text: Compound 12 was screened for activity against 5 of the major classes of mammalian cyclic nucleotide phosphodiesterase (termed PDE 1 through 5). PDE's 1 through 4 utilize cAMP as substrate while PDE 5 uses cGMP. The broad specificity PDE inhibitor 3-isobutyl-1-methylxanthine (IBMX; Sigma; Catalogue No. 17018)) was used as a positive control in all assays. PDE's for the various assays were partially purified from the following cells/tissues; PDE 1 (bovine heart), PDE 2 (human platelets), PDE 3 (human platelets), PDE 4 (human promonocytic U937 cells) and PDE 5 (human platelets).
Platelet cell extracts were prepared as described above for the U937 cells. The PDE3 assay was performed using platelet cell extract as described above for the PDE 4 assay. Platelets contain PDE 2, 3 and 5. However PDE2 and 5 preferentially utilize cGMP, so in an assay with cAMP as a substrate they are not detected.

[6] = tested on: High Affinity Rolipram Binding Site of PDE4 in Mouse Brain; test: Displacement of [3H]-rolipram from its high affinity binding site (HARBS); conditions: ratio of IC50 for PDE4 catalytic activity to concentration displacing 50% of rolipram from HARBS
Experimental: Suspension was centrifuged twice at 30,000×G at 4° C. and the supernatant discarded. The pellet was resuspended in buffer, and adjusted to a protein concentration of 0.5 mg/mL. Drugs to be tested were dissolved in DMSO and pipetted in triplicate into a 96 well microplate at concentrations ranging from 1 to 30,000 nM. […] The plate was incubated at 4° C. for 1 hour. Contents of the plate were aspirated through a Whatman GF/C filterplate, and rinsed with 4×200 μL ice-cold buffer. […] Triplicate determinations were performed at each concentration.

[7] = tested on: K562 chronic myelogenous leukemia cells; test: Anti-proliferative activity in K562 cells (3H-thymidine uptake); format: cell-based, human
Experimental: 90 μL K562 cells (human chronic myelogenous leukemia cells) were seeded into sterile 96-well assay plates at a density of 1×10^5 cells/mL in RPMI 1640 supplemented with 10% FBS/2 mM L-glutamine. Samples to be tested were prepared in a sterile 96-well assay plate at 10×the final concentration desired. All sample dilutions contained equal amounts of DMSO to compensate for the % DMSO in the highest sample concentration used. Nine concentrations of test compound were examined for effects on growth up to a maximal concentration of 100 μM. 10 μL of the samples and controls (DMSO/normal growth control) were added to the aliquoted cells. The cells were incubated at 37° C./5% CO2 for 48 hours. Following 48 hour incubation, 20 μL of 3H-thymidine was added to each well for a final concentration of 1 μCi/mL. The cells were then incubated at 37° C./5% CO2 for 4 to 6 hours. Following 4-6 hour thymidine pulse, plates were wrapped in plastic and frozen in a −20° C. frost-free freezer overnight. Cells were harvested and ^3H-thymidine counts determined. In order to distinguish between cytotoxicity and cytostatic activity, growth curves were prepared where the average CPM value of the seeding density of cells was plotted on the same curve as the average CPM value for the maximum proliferation attained after 48 hours (DMSO growth control cells). The cells were diluted 1:2 for a concentration range of 7.8×10^3 cells/mL to 2×10^6 cells/mL. 90 μL of each cell dilution was seeded in sterile 96-well assay plated and allowed to equilibrate for approximately 4 hours at 37° C./5% CO2 prior to ^3H-thymidine pulse. The data in Table 15 was obtained as described above, and more specifically, K562 cells were seeded into 96-well plates at 1×10^5 cells/mL in RPMI 1640 supplemented with 10% FBS/2 mM L-glutamine. Various concentrations of test compound or vehicle (DMSO) was added and the cells were incubated at 37° C./5 CO2 for 48 hours. The cells were then pulsed at 37° C./5% CO2 for 4 to 6 hours with 1 μCi/mL ^3H-thymidine. Radioactivity incorporated into DNA was determined after harvesting onto glass fiber filters and scintillation counting.

T1 sequence (Q14432 whole entry): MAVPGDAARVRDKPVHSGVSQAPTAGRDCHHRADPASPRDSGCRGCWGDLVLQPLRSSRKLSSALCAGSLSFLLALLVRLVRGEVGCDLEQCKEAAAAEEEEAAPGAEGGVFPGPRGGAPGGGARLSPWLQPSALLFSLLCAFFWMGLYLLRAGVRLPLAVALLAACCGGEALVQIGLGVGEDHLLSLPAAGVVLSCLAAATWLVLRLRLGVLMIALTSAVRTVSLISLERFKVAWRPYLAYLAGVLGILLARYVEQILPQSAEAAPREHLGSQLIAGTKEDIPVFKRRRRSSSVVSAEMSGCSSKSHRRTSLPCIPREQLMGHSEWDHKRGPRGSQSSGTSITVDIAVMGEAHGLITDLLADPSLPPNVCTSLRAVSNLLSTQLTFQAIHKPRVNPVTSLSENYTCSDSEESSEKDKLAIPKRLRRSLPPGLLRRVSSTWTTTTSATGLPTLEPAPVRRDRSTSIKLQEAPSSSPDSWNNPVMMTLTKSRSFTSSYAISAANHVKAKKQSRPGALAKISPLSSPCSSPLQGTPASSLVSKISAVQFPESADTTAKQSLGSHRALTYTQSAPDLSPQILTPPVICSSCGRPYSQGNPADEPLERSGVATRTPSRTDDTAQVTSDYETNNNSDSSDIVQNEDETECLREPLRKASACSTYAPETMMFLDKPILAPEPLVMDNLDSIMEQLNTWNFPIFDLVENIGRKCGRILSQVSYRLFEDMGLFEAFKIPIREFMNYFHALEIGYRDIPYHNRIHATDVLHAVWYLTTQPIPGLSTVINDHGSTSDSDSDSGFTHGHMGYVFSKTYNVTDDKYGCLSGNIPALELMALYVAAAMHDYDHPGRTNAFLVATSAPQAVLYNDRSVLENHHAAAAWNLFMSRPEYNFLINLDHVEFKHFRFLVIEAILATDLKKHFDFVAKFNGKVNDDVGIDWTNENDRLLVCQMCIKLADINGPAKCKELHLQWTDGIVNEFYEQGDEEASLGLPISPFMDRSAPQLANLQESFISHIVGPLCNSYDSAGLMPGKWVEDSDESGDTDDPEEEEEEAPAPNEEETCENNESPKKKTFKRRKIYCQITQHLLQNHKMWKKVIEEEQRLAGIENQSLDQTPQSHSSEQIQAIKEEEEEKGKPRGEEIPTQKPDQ

Which EC50 [1] does the source give for `COc1cc(C[C@H]2C[C@@H](c3ccc(OC)c(OC)c3)COC2=O)ccc1O` [Compound 29] here?
Its EC50 is 1 to 25 µM.

What about the IC50 [2] of the same compound?
Its IC50 is less than 1 µM.

And the IC50 [3]?
The IC50 was 10 to 100 µM.

And the inhibition in vivo at 50 µg/ear [4]?
Its inhibition in vivo at 50 µg/ear is 76%.

And the IC50 [5]?
The IC50 was 10 to 100 µM.

And the “PDE4:HARBS” value [6]?
The value was less than 1.

With `COc1ccc([C@H]2COC(=O)C(Cc3ccc(O)c(O)c3)C2)cc1OC1CCCC1` (some centres unmarked) [Compound 179] as the compound, how does the “effect on proliferative ability / cell cycle of K-562 cells” value [7] read?
The value was “cell cycle arrest”.

And the “PDE4:HARBS” value [6]?
The value was less than 1.
